Laboratory results as given in patent US10301295B2, “Herbicidal compounds” (Syngenta Participations AG, priority 2014, dated 2019).
Read-outs that look alike come from different tables or passages of the source.

Columns and labels:
Type in all cases: in vivo
[1] = system: Alopecurus myosuroides (ALOMY); test: Glasshouse assay for herbicidal activity, pre-/post-emergence (percentage phytotoxicity); settings: Alopecurus myosuroides, Rate 250 g/ha, 100%=total damage, 0%=no damage
Method in brief: (§1)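 Seeds sown in standard soil in pots, grown 1 day (pre-emergence) or ~12 days (post-emergence) before treatment. Glasshouse: warm species 24/18 °C, cool species 20/16 °C day/night, 16 h light, 65% humidity, watered twice daily. Visual phytotoxicity scored 15DAA (post) or 20DAA (pre); 0% none, 100% total damage.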

Avena fatua (AVEFA) = test: as above; settings: Avena fatua, Rate 250 g/ha, 100%=total damage, 0%=no damage
Method in brief: as §1

Lolium perenne (LOLPE) = test: as above; settings: Lolium perenne, Rate 250 g/ha, 100%=total damage, 0%=no damage
Method in brief: as §1

[2] = system: Echinochloa crus-galli (ECHCG); test: as above; settings: Echinochloa crus-galli, Rate 250 g/ha, 100%=total damage, 0%=no damage
Method in brief: as §1

wheat = test: Post-emergence herbicidal activity against cereal crops (wheat) +/- safener, crop selectivity; settings: 100%=total damage to plant, 0%=no damage; for Post-emergence herbicidal activity against wheat (percentage phytotoxicity), +CQC: 250 g/ha, plus safener cloquintocet-mexyl (CQC) applied at 50 g/ha; for percent phytotoxicity (crop damage) to wheat at 250 g/ha: Triticum aestivum, 360 h, without safener, read-out: Post-emergence herbicidal activity against wheat (percentage phytotoxicity), Wheat - CQC
Method in brief: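 Test plants raised in pots in a glasshouse (24/18 °C warm or 20/16 °C cool species day/night, 16 h light, 65% humidity) and treated post-emergence about 12 days after sowing. Visual percentage phytotoxicity scored 15 days after application (0% = no damage, 100% = total damage).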

[3] = 360 h, post-emergence, visual assessment 15 DAA, read-out: Post-emergence herbicidal activity (percentage phytotoxicity), ALOMY POST
[4] = 480 h, pre-emergence, visual assessment 20 DAA, read-out: Pre-emergence herbicidal activity (percentage phytotoxicity), ALOMY PRE
[5] = post-emergence, 360 h, post-emergence, visual assessment 15 DAA, read-out: Post-emergence herbicidal activity (percentage phytotoxicity), AVEFA POST
[6] = pre-emergence, 480 h, pre-emergence, visual assessment 20 DAA, read-out: Pre-emergence herbicidal activity (percentage phytotoxicity), AVEFA PRE
[7] = post-emergence, 360 h, post-emergence, visual assessment 15 DAA, read-out: Post-emergence herbicidal activity (percentage phytotoxicity), LOLPE POST
[8] = pre-emergence, 480 h, pre-emergence, visual assessment 20 DAA, read-out: Pre-emergence herbicidal activity (percentage phytotoxicity), LOLPE PRE
[9] = post-emergence, 360 h, post-emergence, visual assessment 15 DAA, read-out: Post-emergence herbicidal activity (percentage phytotoxicity), ECHCG POST
[10] = pre-emergence, 480 h, pre-emergence, visual assessment 20 DAA, read-out: Pre-emergence herbicidal activity (percentage phytotoxicity), ECHCG PRE

Row | SMILES | pest or weed control at 250 g/ha [1, 3] [%] | pest or weed control at 250 g/ha [1, 4] [%] | pest or weed control at 250 g/ha (Avena fatua (AVEFA); [5]) [%] | pest or weed control at 250 g/ha (Avena fatua (AVEFA); [6]) [%] | pest or weed control at 250 g/ha (Lolium perenne (LOLPE); [7]) [%] | pest or weed control at 250 g/ha (Lolium perenne (LOLPE); [8]) [%] | pest or weed control at 250 g/ha [2, 9] [%] | pest or weed control at 250 g/ha [2, 10] [%] | Post-emergence herbicidal activity against wheat (percentage phytotoxicity), +CQC (wheat) [%] | percent phytotoxicity (crop damage) to wheat at 250 g/ha (wheat) [%]
1 | Cc1cc(C)c(C2C(=O)CC(CCNC(=O)Nc3ccccc3)C2=O)c(C)c1 (stereo not shown) [Compound A9, 1-[2-[2,4-dioxo-3-(2,4,6-trimethylphenyl)cyclopentyl]ethyl]-3-phenyl-urea] | 30 | 60 | 80 | 60 | 90 | 80 | 80 | 80 | 10 | 40
2 | Cc1cc(C)c(C2C(=O)CC(CCNC(=O)NC(=O)c3ccccc3C)C2=O)c(C)c1 (stereo not shown) [Compound A50] | 100 | 100 | 90 | 80 | 100 | 90 | 80 | 90 | 90 | 90
3 | Cc1cc(-c2ncccc2F)cc(C)c1C1C(=O)CC(CCNC(=O)Nc2ccccn2)C1=O.Cl (stereo not shown) [Compound A24] | 60 | 10 | 100 | 70 | 90 | 80 | 100 | 90 | 70 | 80
4 | Cc1cc(C)c(C2C(=O)CC(CCNC(=O)Nc3ccc(Br)cn3)C2=O)c(C)c1.Cl (stereo not shown) [Compound A4] | 90 | 80 | 100 | 70 | 100 | 80 | 90 | 60 | 50 | 90
5 | Cc1cc(C)c(C2C(=O)CC(CCNC(=O)NC(=O)c3ccc(OC(F)(F)F)cc3)C2=O)c(C)c1 (stereo not shown) [Compound A71] | 20 | 30 | 50 | 20 | 80 | 40 | 80 | 0 | 20 | 80
6 | Cc1cc(C)c(C2C(=O)CC(CCNC(=O)NC(=O)c3c(F)cccc3F)C2=O)c(C)c1 (stereo not shown) [Compound A48] | 90 | 100 | 100 | 90 | 100 | 100 | 100 | 90 | 50 | 60
7 | Cc1cc(C)c(C2C(=O)CC(CCNC(=O)NC(=O)c3ccc(Cl)c(Cl)c3)C2=O)c(C)c1 (stereo not shown) [Compound A68] | 50 | 0 | 0 | 10 | 80 | 30 | 70 | 10 | 0 | 90
